Source: patent US10336762B2 (priority 2017, dated 2019)
Read-outs that look alike come from different tables or passages of the source.

Columns and labels:
TNFα = test: cells; type: cell-based, human; conditions: LPS-stimulated human monocytes, TNFα content, read-out: EC50 TNF
IRAK4 enzyme = IRAK4 enzyme (Homo sapiens (Human), UniProt Q9NWZ3); test: biochemical; type: biochemical; conditions: IRAK4 enzyme, TR-FRET, 500 μM ATP
IRAK4 enzyme, sequence (Q9NWZ3 whole entry): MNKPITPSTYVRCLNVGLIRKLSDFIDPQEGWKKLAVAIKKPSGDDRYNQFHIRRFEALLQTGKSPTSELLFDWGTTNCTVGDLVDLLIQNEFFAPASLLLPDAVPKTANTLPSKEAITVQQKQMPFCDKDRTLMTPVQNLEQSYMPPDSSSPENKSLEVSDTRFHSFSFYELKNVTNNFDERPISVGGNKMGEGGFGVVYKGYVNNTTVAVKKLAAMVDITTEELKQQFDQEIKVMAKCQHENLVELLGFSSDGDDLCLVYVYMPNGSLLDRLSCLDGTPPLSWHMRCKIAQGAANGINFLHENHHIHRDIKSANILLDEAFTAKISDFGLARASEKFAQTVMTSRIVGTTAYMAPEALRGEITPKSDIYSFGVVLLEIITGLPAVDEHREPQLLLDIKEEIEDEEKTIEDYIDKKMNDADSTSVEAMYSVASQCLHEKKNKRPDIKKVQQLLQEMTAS

| Structure (SMILES) | EC50 (TNFα; Homo sapiens, Monocyte) | IC50 (IRAK4 enzyme) | EC50 (TNFα) |
| --- | --- | --- | --- |
| CC(C)Nc1cc(-c2ccc3cc(C(N)=O)cnn23)ncc1C(=O)NCC1CCS(=O)(=O)C1 (stereo not shown) [Example 9, 7-(5-(((1,1-dioxidotetrahydrothiophen-3-yl)methyl)carbamoyl)-4-(isopropylamino)pyridin-2-yl)pyrrolo[1,2-b]pyridazine-3-carboxamide] | 5100 nM | 16 nM | – |
| CC(C)(O)[C@H](F)CNC(=O)c1cnc(-c2ccc3cc(C#N)cnn23)cc1NS(C)(=O)=O [Example 10, (R)-6-(3-cyanopyrrolo[1,2-b]pyridazin-7-yl)-N-(2-fluoro-3-hydroxy-3-methylbutyl)-4-(methylsulfonamido)nicotinamide] | > 10000 nM | 234 nM | – |
| CC(C)(O)[C@H](F)CNC(=O)c1cnc(-c2ccc3cc(C#N)cnn23)cc1N [Example 11, (R)-4-amino-6-(3-cyanopyrrolo[1,2-b]pyridazin-7-yl)-N-(2-fluoro-3-hydroxy-3-methylbutyl)nicotinamide] | 1040 nM | 7 nM | – |
| CC(C)Nc1cc(-c2ccc3cc(C#N)cnn23)ncc1C(=O)N[C@H]1CC[C@H](N)CC1 [Example 12, N-((1r,4r)-4-aminocyclohexyl)-6-(3-cyanopyrrolo[1,2-b]pyridazin-7-yl)-4-(isopropylamino)nicotinamide] | 97 nM | 2 nM | – |
| CC(=O)N[C@H]1CC[C@H](NC(=O)c2cnc(-c3ccc4cc(C#N)cnn34)cc2NC(C)C)CC1 [Example 13, N-((1r,4r)-4-acetamidocyclohexyl)-6-(3-cyanopyrrolo[1,2-b]pyridazin-7-yl)-4-(isopropylamino)nicotinamide] | 79 nM | < 1 nM | – |
| CC(C)(O)[C@H](F)CNC(=O)c1cnc(-c2ccc3cc(C#N)cnn23)cc1NC1CC2CCC(C1)N2 (stereo partly drawn) [Example 14, 4-(((1R,3r,5S)-8-azabicyclo[3.2.1]octan-3-yl)amino)-6-(3-cyanopyrrolo[1,2-b]pyridazin-7-yl)-N-((R)-2-fluoro-3-hydroxy-3-methylbutyl)nicotinamide] | 626 nM | 3 nM | – |
| CC(C)(O)[C@H](F)CNC(=O)c1cnc(-c2ccc3cc(C#N)cnn23)cc1NC1CC2CCC(C1)N2S(C)(=O)=O (stereo partly drawn) [Example 15, 6-(3-cyanopyrrolo[1,2-b]pyridazin-7-yl)-N-((R)-2-fluoro-3-hydroxy-3-methylbutyl)-4-(((1R,3r,5S)-8-(methylsulfonyl)-8-azabicyclo[3.2.1]octan-3-yl)amino)nicotinamide] | – | 4 nM | 302 nM |
| CC(=O)N1CCC(Nc2cc(-c3ccc4cc(C#N)cnn34)ncc2C(=O)NC[C@@H](F)C(C)(C)O)CC1 [Example 16, (R)-4-((1-acetylpiperidin-4-yl)amino)-6-(3-cyanopyrrolo[1,2-b]pyridazin-7-yl)-N-(2-fluoro-3-hydroxy-3-methylbutyl)nicotinamide] | 204 nM | 2 nM | – |
| CC(C)Nc1cc(-c2ccc3cc(-c4nnn[nH]4)cnn23)ncc1C(=O)NC[C@@H](F)C(C)(C)O [Example 17, (R)-6-(3-(1H-tetrazol-5-yl)pyrrolo[1,2-b]pyridazin-7-yl)-N-(2-fluoro-3-hydroxy-3-methylbutyl)-4-(isopropylamino)nicotinamide] | 5200 nM | 24 nM | – |
| CC(C)Nc1cc(-c2ccc3cc(C#N)cnn23)ncc1C(=O)NCCS(N)(=O)=O [Example 20, 6-(3-cyanopyrrolo[1,2-b]pyridazin-7-yl)-4-(isopropyl-amino)-N-(2-sulfamoylethyl)nicotinamide] | 128 nM | 2 nM | – |
| CC(C)Nc1cc(-c2ccc3cc(C#N)cnn23)ncc1C(=O)NCCc1ccc(S(N)(=O)=O)cc1 [Example 21, 6-(3-cyanopyrrolo[1,2-b]pyridazin-7-yl)-4-(isopropylamino)-N-(4-sulfamoylphenethyl) nicotinamide] | 69 nM | < 1 nM | – |
| CNC(=O)C1CCC(NC(=O)c2cnc(-c3ccc4cc(C#N)cnn34)cc2NC(C)C)CC1 (stereo not shown) [Example 22, 6-(3-cyanopyrrolo[1,2-b]pyridazin-7-yl)-4-(isopropyl-amino)-N-((1r,4r)-4-(methylcarbamoyl)cyclohexyl) nicotinamide] | 87 nM | < 1 nM | – |
| CC(C)(O)[C@H](F)CNC(=O)c1cnc(-c2ccc3cc(C#N)cnn23)cc1NC1CCNCC1 [Example 23, (R)-6-(3-cyanopyrrolo[1,2-b]pyridazin-7-yl)-N-(2-fluoro-3-hydroxy-3-methylbutyl)-4-(piperidin-4-ylamino)nicotinamide] | 676 nM | 3 nM | – |
| CC(C)(O)[C@H](F)CNC(=O)c1cnc(-c2ccc3cc(C#N)cnn23)cc1NC1CC2CCC(C1)N2 (stereo partly drawn) [Example 24, 4-(((1R,3s,5S)-8-azabicyclo[3.2.1]octan-3-yl)amino)-6-(3-cyanopyrrolo[1,2-b]pyridazin-7-yl)-N-((R)-2-fluoro-3-hydroxy-3-methylbutyl)nicotinamide] | – | 2 nM | 642 nM |
| CC(C)(O)[C@H](F)CNC(=O)c1cnc(-c2ccc3cc(C#N)cnn23)cc1NC1CC2CCC(C1)N2S(C)(=O)=O (stereo partly drawn) [Example 29, 6-(3-cyanopyrrolo[1,2-b]pyridazin-7-yl)-N-((R)-2-fluoro-3-hydroxy-3-methylbutyl)-4-(((1R,3s,5S)-8-(methylsulfonyl)-8-azabicyclo[3.2.1]octan-3-yl)amino)nicotinamide] | – | < 1 nM | 100 nM |
| CC(C)(O)[C@H](F)CNC(=O)c1cnc(-c2ccc3cc(C#N)cnn23)cc1NC1C2CC1CN(S(C)(=O)=O)C2 (stereo partly drawn) [Example 30, 6-(3-cyanopyrrolo[1,2-b]pyridazin-7-yl)-N-((R)-2-fluoro-3-hydroxy-3-methyl-butyl)-4-((3-(methylsulfonyl)-3-azabicyclo[3.1.1]heptan-6-yl)amino)nicotinamide] | 732 nM | 3 nM | – |
| CC(C)(O)[C@H](F)CNC(=O)c1cnc(-c2ccc3cc(C#N)cnn23)cc1NC1C2CCC1CN(S(C)(=O)=O)C2 (stereo partly drawn) [Example 31, 6-(3-cyanopyrrolo[1,2-b]pyridazin-7-yl)-N-((R)-2-fluoro-3-hydroxy-3-methylbutyl)-4-((3-(methylsulfonyl)-3-azabicyclo[3.2.1]octan-8-yl)amino)nicotinamide] | 757 nM | 16 nM | – |
| CC(C)(O)[C@H](F)CNC(=O)c1cnc(-c2ccc3cc(C#N)cnn23)cc1N[C@H]1C[C@@H]2C[C@H]1CN2 [Example 32, 4-(((1S,4S,5S)-2-azabicyclo[2.2.1]heptan-5-yl)amino)-6-(3-cyano-pyrrolo[1,2-b]pyridazin-7-yl)-N-((R)-2-fluoro-3-hydroxy-3-methylbutyl)nicotinamide] | > 10000 nM | 3 nM | – |
| CC(C)(C)Nc1cc(-c2ccc3cc(C#N)cnn23)ncc1C(=O)NC[C@@H](F)C(C)(C)O [Example 33, (R)-4-(tert-butylamino)-6-(3-cyanopyrrolo[1,2-b]pyridazin-7-yl)-N-(2-fluoro-3-hydroxy-3-methylbutyl)nicotinamide] | 29 nM | < 1 nM | – |
| CC(C)Nc1cc(-c2ccc3cc(C#N)cnn23)ncc1C(=O)NS(C)(=O)=O [Example 34, 6-(3-cyanopyrrolo[1,2-b]pyridazin-7-yl)-4-(isopropylamino)-N-(methylsulfonyl) nicotinamide] | > 10000 nM | 9380 nM | – |
| CC(C)Nc1cc(-c2ccc3cc(C#N)cnn23)ncc1C(=O)N[C@H]1CCOC1 [Example 36, (S)-6-(3-cyanopyrrolo[1,2-b]pyridazin-7-yl)-4-(isopropylamino)-N-(tetrahydrofuran-3-yl) nicotinamide] | 221 nM | 15 nM | – |
| CC(C)Nc1cc(-c2ccc3cc(C#N)cnn23)ncc1C(=O)N[C@@H]1CCOC1 [Example 37, (R)-6-(3-cyanopyrrolo[1,2-b]pyridazin-7-yl)-4-(isopropylamino)-N-(tetrahydrofuran-3-yl) nicotinamide] | 283 nM | 12 nM | – |
| CNC(=O)c1cnc(-c2ccc3cc(C#N)cnn23)cc1NC(C)C [Example 38, 6-(3-cyanopyrrolo[1,2-b]pyridazin-7-yl)-4-(isopropylamino)-N-methylnicotinamide] | 91 nM | 2 nM | – |
| CC(C)Nc1cc(-c2ccc3cc(C#N)cnn23)ncc1C(N)=O [Example 39, 6-(3-cyanopyrrolo[1,2-b]pyridazin-7-yl)-4-(isopropylamino) nicotinamide] | 507 nM | 4 nM | – |
| CC(C)(O)[C@H](F)CNC(=O)c1cnc(-c2ccc3cc(C#N)cnn23)cc1NC1CC(F)(F)C1 [Example 40, (R)-6-(3-cyanopyrrolo[1,2-b]pyridazin-7-yl)-4-((3,3-difluorocyclobutyl)amino)-N-(2-fluoro-3-hydroxy-3-methylbutyl)nicotinamide] | 73 nM | < 1 nM | – |
| CC(C)Nc1cc(-c2ccc3cc(C#N)cnn23)ncc1C(=O)NCCC(C)(C)O [Example 41, 6-(3-cyanopyrrolo[1,2-b]pyridazin-7-yl)-N-(3-hydroxy-3-methylbutyl)-4-(isopropylamino) nicotinamide] | 78 nM | < 1 nM | – |
| CC(C)(O)[C@H](F)CNC(=O)c1cnc(-c2ccc3cc(C#N)cnn23)cc1NC1CCOCC1 [Example 42, (R)-6-(3-cyanopyrrolo[1,2-b]pyridazin-7-yl)-N-(2-fluoro-3-hydroxy-3-methylbutyl)-4-((tetrahydro-2H-pyran-4-yl)amino)nicotinamide] | 35 nM | < 1 nM | – |
| CC(C)(O)[C@H](F)CNC(=O)c1cnc(-c2ccc3cc(C#N)cnn23)cc1Nc1cnn(C2COC2)c1 [Example 43, (R)-6-(3-cyanopyrrolo[1,2-b]pyridazin-7-yl)-N-(2-fluoro-3-hydroxy-3-methyl-butyl)-4-((1-(oxetan-3-yl)-1H-pyrazol-4-yl)amino) nicotinamide] | 30 nM | < 1 nM | – |
| CC(C)(O)[C@H](F)CNC(=O)c1cnc(-c2ccc3cc(C#N)cnn23)cc1NN1CCOCC1 [Example 44, (R)-6-(3-cyanopyrrolo[1,2-b]pyridazin-7-yl)-N-(2-fluoro-3-hydroxy-3-methylbutyl)-4-(morpholinoamino) nicotinamide] | > 10000 nM | 6630 nM | – |
